According to US20240262835A1, “PRMT5 INHIBITING COMPOUNDS AND USES THEREOF” (ANTENGENE DISCOVERY LIMITED, priority 2023, published 2024):

Key:
[1] = test system: HCT116 homozygous MTAP knockout cells; assay: HCT116 cell proliferation assay (CTG), MTAP knockout cells; format: cell-based, human; settings: Homo sapiens, HCT-116, 6 days treatment, Cell Titer-Glo
Method: (§1) Control samples were analyzed in parallel.
(§2) On Day 0, 150 HCT116 parental or HCT116 homozygous MTAP knockout cells were seeded in 96-well plates in McCoy's 5A medium containing 10% fetal bovine serum and pen/strep. And the cells were incubated overnight at 37° C. and 5% CO2.
(§3) On Day 1, cells were treated with 9-point serial dilution of compound, using a top concentration of 50 μM, 1:5 serial dilution steps and, a DMSO-only control. And cells were incubated for 6 days.
(§4) On Day 7, cell viability was measured using a CTG assay Kit (Cell Titer-Glo; Promega, catalog no.: G7573) in accordance with the manufacturer's instructions. Assays plates were read on a EnVision™ Multilabel Reader using the Ultra-Sensitive luminescence model. The data were analyzed by GraphPad Prism 5.0 software, and the dose-effect curve was obtained by fitting the data using nonlinear S-curve regression, from which the IC50 value was calculated.

[2] = test system: HCT116 parental (wild type) cells; assay: HCT116 cell proliferation assay (CTG), parental cells; format: cell-based, human; settings: Homo sapiens, HCT-116, 6 days treatment, Cell Titer-Glo
Method: as §1, §2, §3, §4

PRMT5/MEP50 = PRMT5/MEP50 (Homo sapiens (Human), UniProt O14744); assay: MTase-Glo methyl transferase assay (PRMT5 inhibition); format: biochemical; settings: 50 nM PRMT5/MEP50, 25 μM SAM, 5 μM Histone H4 peptide (1-21), read-out: IC50 for PRMT5 inhibiting
Chain of PRMT5/MEP50 (O14744 whole entry): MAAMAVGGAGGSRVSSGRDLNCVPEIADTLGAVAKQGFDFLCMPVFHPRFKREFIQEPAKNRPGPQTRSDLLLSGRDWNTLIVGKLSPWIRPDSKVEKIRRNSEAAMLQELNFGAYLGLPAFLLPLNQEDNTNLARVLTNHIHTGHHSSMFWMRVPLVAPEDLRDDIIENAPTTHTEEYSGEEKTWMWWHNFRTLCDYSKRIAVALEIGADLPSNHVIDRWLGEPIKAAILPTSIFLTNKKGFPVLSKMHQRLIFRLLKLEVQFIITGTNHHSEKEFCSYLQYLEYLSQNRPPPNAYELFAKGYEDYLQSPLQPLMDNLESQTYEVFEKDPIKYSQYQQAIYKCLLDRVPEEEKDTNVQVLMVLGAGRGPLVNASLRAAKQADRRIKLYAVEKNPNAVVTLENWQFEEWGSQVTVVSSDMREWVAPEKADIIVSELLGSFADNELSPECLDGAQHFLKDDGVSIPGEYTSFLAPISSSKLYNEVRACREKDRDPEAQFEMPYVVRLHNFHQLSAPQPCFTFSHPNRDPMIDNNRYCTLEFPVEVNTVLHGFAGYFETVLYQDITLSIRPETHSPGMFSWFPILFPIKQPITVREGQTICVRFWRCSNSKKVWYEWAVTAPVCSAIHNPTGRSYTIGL
Chain of PRMT5/MEP50 (Q9BQA1 whole entry partner): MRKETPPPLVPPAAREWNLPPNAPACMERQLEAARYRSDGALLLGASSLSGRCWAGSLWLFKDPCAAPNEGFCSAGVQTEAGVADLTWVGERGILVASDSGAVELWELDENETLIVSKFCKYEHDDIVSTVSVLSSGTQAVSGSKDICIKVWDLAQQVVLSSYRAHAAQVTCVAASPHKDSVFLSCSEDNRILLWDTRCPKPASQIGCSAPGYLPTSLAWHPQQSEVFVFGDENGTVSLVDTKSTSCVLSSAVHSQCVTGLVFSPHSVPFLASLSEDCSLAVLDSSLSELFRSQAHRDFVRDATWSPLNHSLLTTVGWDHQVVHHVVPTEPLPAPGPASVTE
Method: The PRMT5 inhibitory activity of test compounds was determined using the MTase-Glo™ assay (Promega), which monitors the product (S-adenosyl homocysteine or SAH) of methyltransferase reactions. The PRMT5 MTase-Glo assays were conducted in a 384-well white ProxiPlate (PerkinElmer, catalog no.: 6008280) in a total volume of 12 μL. The PRMT5 enzymatic reaction (in 4 μL) contained 50 nM PRMT5/MEP50 (Reaction Biology Corp, catalog no.: HMT-22-148), 25 μM S-adenosyl methionine (SAM, Promega), 5 μM Histone H4 peptide (1-21) (BPS Bioscience, catalog no.: 52018-2) and five-fold serially diluted compounds in a reaction buffer of 50 mM Tris (pH 8.0), 50 mM NaCl, 0.01% Tween 20, 0.01% BSA, and 1 mM DTT. The test compounds were pre-incubated with PRMT5/MEP50 and Histone H4 peptide for 20 minutes at room temperature before the addition of SAM to initiate the PRMT5 reaction. The reaction was allowed to proceed for 1 hour at 37° C. and was terminated by 2 μL of 3× MTase-Glo™ Reagent (Promega) and 150 μM EPZ015666 (Selleck, catalog no.: 1616391-65-1). After a 30-minute incubation at room temperature, 6 μL of MTase-Glo™ Detection Solution (Promega) was added and the plate was incubated at room temperature for an additional 30 minutes. The light signal corresponding to the amount of SAH produced by the PRMT5 reaction was subsequently measured using an Envision multimode reader (PerkinElmer). IC50 and Ki values were obtained by analyzing dose-response curves using GraphPad Prism.

| SMILES | IC50 [1] | IC50 [2] | IC50 (PRMT5/MEP50) |
| --- | --- | --- | --- |
| Cn1ncc(-c2ccc3c(c2)nc(N)c2cncn23)c1-c1c(F)cc2ccccc2c1C#N [Compound 1] | 73 nM | 4360 nM | 45 nM |
| Cn1ncc(-c2ccc3c(c2)nc(N)c2cncn23)c1-c1c(F)c(Cl)cc(OC2CC2)c1C#N [Compound 2] | 158 nM | 5720 nM | 45 nM |
| C[C@H](c1ncccn1)N(Cc1ccc(C(F)(F)F)cn1)C(=O)c1ccc2nc(N)c3cncn3c2c1 [Compound 3] | 156 nM | 16000 nM | 24 nM |
| C[C@H]1CC[C@H](c2ccc3c(c2)CCC(=O)N3)N(C(=O)c2ccc3nc(N)c4cncn4c3c2)C1 [Compound 4] | 12 nM | 105 nM | 28 nM |
| C[C@H](c1ncccn1)N(Cc1ccc(C(F)(F)F)cn1)C(=O)c1ccc2nc(N)n3cncc3c2c1 [Compound 5] | 138 nM | 1580 nM | 26 nM |
| C[C@H](c1ncccn1)N(Cc1ccc(C(F)(F)F)cn1)C(=O)c1cc2c(cc1F)nc(N)c1cncn12 [Compound 6] | 17 nM | 230 nM | 36 nM |
| C[C@H](c1ncccn1)N(Cc1ccc(C(F)(F)F)cn1)C(=O)c1cc2c(cn1)nc(N)c1cncn12 [Compound 10] | 33 nM | 495 nM | 54 nM |
| CN(C(=O)c1ccc2nc(N)c3cncn3c2c1)C1COc2cc(C(F)(F)F)ccc21 (stereo not drawn) [Compound 11] | 64 nM | 7680 nM | 51 nM |
| CN(C(=O)c1cnc2nc(N)c3cncn3c2c1)[C@@H]1COc2cc(C(F)(F)F)ccc21 [Compound 13] | 181 nM | 4570 nM | 40 nM |
| CN(C(=O)c1ccc2nc(N)c3cncn3c2c1)C1COc2cc(C(F)(F)F)ccc21 (stereo not drawn) [Compound 16] |  |  | 231 nM |
| CN(C(=O)c1ccc2nc(N)c3cncn3c2c1)C1COc2cc(C(F)(F)F)ccc21 (stereo not drawn) [Compound 18] |  |  | 420 nM |
| CN(C(=O)c1cc2c(cn1)nc(N)c1cncn12)C1COc2cc(C(F)(F)F)ccc21 (stereo not drawn) [Compound 20] |  |  | 455 nM |
| CN(C(=O)c1cc2c(cn1)nc(N)c1cncn12)C1COc2cc(C(F)(F)F)ccc21 (stereo not drawn) [Compound 22] |  |  | 1150 nM |
| CN(C(=O)c1ccc2nc(N)c3cncn3c2c1)C1COCc2cc(C(F)(F)F)ccc21 (stereo not drawn) [Compound 23] | 40 nM | 5350 nM | 31 nM |
| CN(C(=O)c1cc2c(cn1)nc(N)c1cncn12)C1CC(F)(F)c2cc(C(F)(F)F)ccc21 (stereo not drawn) [Compound 25] |  |  | 167 nM |
| CN(C(=O)c1cc2c(cn1)nc(N)c1cncn12)C1CC(F)(F)c2cc(C(F)(F)F)ccc21 (stereo not drawn) [Compound 27] |  |  | 1690 nM |
| CN(C(=O)c1ccc2nc(N)c3cncn3c2c1)C1COc2nc(C(F)(F)F)ccc21 (stereo not drawn) [Compound 28] | 483 nM | > 50000 nM | 37 nM |
| CN(C(=O)c1cc2c(cn1)nc(N)c1cncn12)C1COc2nc(C(F)(F)F)ccc21 (stereo not drawn) [Compound 29] | 377 nM | 21900 nM | 37 nM |
| CN(C(=O)c1ccc2nc(N)c3cncn3c2c1)C1COc2cc(C(F)(F)F)cnc21 (stereo not drawn) [Compound 30] | 4020 nM | > 50000 nM | 89 nM |
| CN(C(=O)c1cc2c(cn1)nc(N)c1cncn12)C1COc2cc(C(F)(F)F)cnc21 (stereo not drawn) [Compound 31] | 1500 nM | 9580 nM | 96 nM |
| CN(C(=O)c1ccc2nc(N)c3cncn3c2c1)C1COc2cc(C(F)(F)F)ncc21 (stereo not drawn) [Compound 32] | 286 nM | 8090 nM | 25 nM |
| CN(C(=O)c1cc2c(cn1)nc(N)c1cncn12)C1COc2cc(C(F)(F)F)ncc21 (stereo not drawn) [Compound 33] | 980 nM | 18000 nM | 51 nM |
| [2H]C([2H])([2H])N(C(=O)c1cc2c(cn1)nc(N)c1cncn12)C1COc2c1ccc(C(F)(F)F)c2F (stereo not drawn) [Compound 34] | 364 nM | 14000 nM | 70 nM |
